Measured values from ChEMBL document CHEMBL4002584, “Synthesis and antibacterial activities of novel pleuromutilin derivatives with a substituted pyrimidine moiety” (2017).
≈ marks a conversion by molar mass, not a printed value.

Key:
Assay type in all cases: functional
Escherichia coli [1] = assay: Antibacterial activity against Escherichia coli CMCC (B) 44102 at 160 ug/ml after 24 to 36 hrs by oxford cup assay; conditions: read-out: DIZ
Bacillus subtilis [2] = assay: Antibacterial activity against Bacillus subtilis CMCC (B) 63501 at 320 ug/ml after 24 to 36 hrs by oxford cup assay; conditions: read-out: DIZ
Escherichia coli [3] = assay: Antibacterial activity against Escherichia coli CMCC (B) 44102 at 320 ug/ml after 24 to 36 hrs by oxford cup assay; conditions: read-out: DIZ
Bacillus subtilis [4] = assay: Antibacterial activity against Bacillus subtilis CMCC (B) 63501 after 24 to 48 hrs by agar dilution method
Staphylococcus aureus [5] = assay: Antibacterial activity against […] Staphylococcus aureus ATCC 33591 at 160 ug/ml after 24 to 36 hrs by oxford cup assay; conditions: read-out: DIZ
Staphylococcus aureus [6] = assay: Antibacterial activity against Staphylococcus aureus CMCC (B) 26003 at 160 ug/ml after 24 to 36 hrs by oxford cup assay; conditions: read-out: DIZ
Staphylococcus aureus [7] = assay: Antibacterial activity against […] Staphylococcus aureus ATCC 29213 at 320 ug/ml after 24 to 36 hrs by oxford cup assay; conditions: read-out: DIZ
Staphylococcus aureus [8] = assay: Antibacterial activity against […] Staphylococcus aureus ATCC 33591 after 24 to 48 hrs by agar dilution method
Staphylococcus aureus [9] = assay: Antibacterial activity against Staphylococcus aureus CMCC (B) 26003 after 24 to 48 hrs by agar dilution method
Escherichia coli [10] = assay: Antibacterial activity against Escherichia coli CMCC (B) 44102 after 24 to 48 hrs by agar dilution method
Staphylococcus aureus [11] = assay: Antibacterial activity against […] Staphylococcus aureus ATCC 29213 after 24 to 48 hrs by agar dilution method
Staphylococcus aureus [12] = assay: Antibacterial activity against […] Staphylococcus aureus ATCC 29213 at 160 ug/ml after 24 to 36 hrs by oxford cup assay; conditions: read-out: DIZ
Bacillus subtilis [13] = assay: Antibacterial activity against Bacillus subtilis CMCC (B) 63501 at 160 ug/ml after 24 to 36 hrs by oxford cup assay; conditions: read-out: DIZ
Staphylococcus aureus [14] = assay: Antibacterial activity against Staphylococcus aureus CMCC (B) 26003 at 320 ug/ml after 24 to 36 hrs by oxford cup assay; conditions: read-out: DIZ
Staphylococcus aureus [15] = assay: Antibacterial activity against […] Staphylococcus aureus ATCC 33591 at 320 ug/ml after 24 to 36 hrs by oxford cup assay; conditions: read-out: DIZ
Staphylococcus aureus [16] = assay: Antibacterial activity against […] Staphylococcus aureus ATCC 29213 in iv dosed Balb/c mouse systemic infection model assessed as increase in mouse survival after 7 days
Staphylococcus aureus [17] = assay: Bactericidal activity against Staphylococcus aureus CMCC (B) 26003 assessed as bacterial level at MIC after 1 to 24 hrs by time-kill assay
Staphylococcus aureus [18] = assay: Bactericidal activity against […] Staphylococcus aureus ATCC 29213 after 1 to 24 hrs by time-kill assay
Staphylococcus aureus [19] = assay: Bactericidal activity against Staphylococcus aureus CMCC (B) 26003 after 1 to 24 hrs by time-kill assay
Staphylococcus aureus [20] = assay: Bactericidal activity against Staphylococcus aureus CMCC (B) 26003 at 6 times MIC after 4 hrs by time-kill assay relative to control

Row | Compound | zone of inhibition at 160 µg/mL (Escherichia coli [1]) [mm] | zone of inhibition at 320 µg/mL (Bacillus subtilis [2]) [mm] | zone of inhibition at 320 µg/mL (Escherichia coli [3]) [mm] | MIC (Bacillus subtilis [4]) [µg/mL] | zone of inhibition at 160 µg/mL (Staphylococcus aureus [5]) [mm] | zone of inhibition at 160 µg/mL (Staphylococcus aureus [6]) [mm] | zone of inhibition at 320 µg/mL (Staphylococcus aureus [7]) [mm] | MIC (Staphylococcus aureus [8]) [µg/mL] | MIC (Staphylococcus aureus [9]) [µg/mL] | MIC (Escherichia coli [10]) [µg/mL] | MIC (Staphylococcus aureus [11]) [µg/mL] | zone of inhibition at 160 µg/mL (Staphylococcus aureus [12]) [mm] | zone of inhibition at 160 µg/mL (Bacillus subtilis [13]) [mm] | zone of inhibition at 320 µg/mL (Staphylococcus aureus [14]) [mm] | zone of inhibition at 320 µg/mL (Staphylococcus aureus [15]) [mm] | also measured
1 | C=C[C@]1(C)C[C@@H](OC(=O)CSc2nc(N)cc(NC(=O)CN3CC[C@H](O)C3)n2)[C@]2(C)[C@H](C)CC[C@]3(CCC(=O)[C@H]32)[C@@H](C)[C@@H]1O | 8.86 | 15.8 | 10.5 | 2 (≈ 3.18 µM) | 22.7 | 22.1 | 29.6 | 0.25 (≈ 0.397 µM) | 0.125 (≈ 0.198 µM) | 8 (≈ 12.7 µM) | 0.125 (≈ 0.198 µM) | 22.1 | 13.6 | 32.7 | 33.3 | –
2 | C=C[C@]1(C)C[C@@H](OC(=O)CSc2nc(N)cc(NC(=O)CN(C)C)n2)[C@]2(C)[C@H](C)CC[C@]3(CCC(=O)[C@H]32)[C@@H](C)[C@@H]1O | 9.55 | 17.5 | 12.1 | 4 (≈ 6.81 µM) | 18 | 21.8 | 25.4 | 0.5 (≈ 0.851 µM) | 0.25 (≈ 0.425 µM) | 8 (≈ 13.6 µM) | 1 (≈ 1.7 µM) | 18.9 | 13.9 | 34.2 | 22.4 | –
3 | C=C[C@]1(C)C[C@@H](OC(=O)CSc2nc(N)cc(NC(=O)CN3CCC(CCO)CC3)n2)[C@]2(C)[C@H](C)CC[C@]3(CCC(=O)[C@H]32)[C@@H](C)[C@@H]1O | 10.6 | 17.3 | 12.7 | 2 (≈ 2.98 µM) | 21.6 | 24 | 24.9 | 0.5 (≈ 0.744 µM) | 0.125 (≈ 0.186 µM) | 8 (≈ 11.9 µM) | 1 (≈ 1.49 µM) | 18.3 | 15.6 | 33.6 | 32.4 | –
4 | C=C[C@]1(C)C[C@@H](OC(=O)CSc2nc(N)cc(NC(=O)CN3CCCCC3)n2)[C@]2(C)[C@H](C)CC[C@]3(CCC(=O)[C@H]32)[C@@H](C)[C@@H]1O | 8.89 | 19.6 | 10.3 | 4 (≈ 6.37 µM) | 17.9 | 23 | 24.9 | 0.5 (≈ 0.796 µM) | 0.25 (≈ 0.398 µM) | 8 (≈ 12.7 µM) | 0.25 (≈ 0.398 µM) | 18.2 | 15.2 | 30.1 | 22.8 | –
5 | C=C[C@]1(C)C[C@@H](OC(=O)CSCCN(CC)CC)[C@]2(C)[C@H](C)CC[C@]3(CCC(=O)[C@H]32)[C@@H](C)[C@@H]1O [TIAMULIN] | 9.42 | 21.3 | 13.3 | 2 (≈ 4.05 µM) | 20.2 | 26.1 | 29.4 | 0.125 (≈ 0.253 µM) | 0.0625 (≈ 0.127 µM) | 4 (≈ 8.1 µM) | 0.25 (≈ 0.506 µM) | 22.9 | 17.4 | 37.9 | 33.9 | Activity (Staphylococcus aureus [16]): Dose-dependent effect; ED50 (Staphylococcus aureus [16]; ATCC 29213, iv, 168 h): 5.94 mg/kg; Activity (Staphylococcus aureus [17]): 3 - 4 log10CFU/ml; Activity (Staphylococcus aureus [18]): Dose-dependent effect; Activity (Staphylococcus aureus [19]): Dose-dependent effect; fold change (FC) (Staphylococcus aureus [20]): >6
